For assay [1], the target named is recombinant RORγ Ligand Binding Domain (LBD) protein (Homo sapiens (Human), UniProt P51449). The assay is described as follows: Radio-Ligand RORγ Binding Assay (Assay 1). As to conditions: competition with 25-hydroxy [26,27-3H]-cholesterol, SPA. The method in brief: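 Scintillation proximity competition against 25-hydroxy [26,27-^3H]-cholesterol (8.6 nM solution) for 6×His-GST-tagged RORγ LBD (24 nM solution) in HEPES pH 7.4 with CHAPS, β-octylglucopyranoside and DTT; semi-log compound dilutions, ~1 h total at rt with poly-Lys YSi beads. IC50 from four-parameter fit; Ki derived from [RL] and radioligand KD.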

The target in assay [2] is full-length RORγt in Jurkat cells (Homo sapiens (Human), UniProt P51449). The experiment in a line: RORγt 5×RORE Assay in Jurkat Cells (Assay 2). It is filed as cell-based. The following applies: 5×RORE Nanoluc luciferase reporter. A general note: In a reporter assay the amount or activity of a reporter protein is the signal.

This note sets out measurements from patent publication US10829481B2, “Benzimidazole derivatives as modulators of ROR-gamma” (Vitae Pharmaceuticals, LLC, priority 2016, dated 2020).

Structures are written as SMILES.

full-length RORγt in Jurkat cells, sequence (P51449 other isoform, or with tags, fused parts or gaps): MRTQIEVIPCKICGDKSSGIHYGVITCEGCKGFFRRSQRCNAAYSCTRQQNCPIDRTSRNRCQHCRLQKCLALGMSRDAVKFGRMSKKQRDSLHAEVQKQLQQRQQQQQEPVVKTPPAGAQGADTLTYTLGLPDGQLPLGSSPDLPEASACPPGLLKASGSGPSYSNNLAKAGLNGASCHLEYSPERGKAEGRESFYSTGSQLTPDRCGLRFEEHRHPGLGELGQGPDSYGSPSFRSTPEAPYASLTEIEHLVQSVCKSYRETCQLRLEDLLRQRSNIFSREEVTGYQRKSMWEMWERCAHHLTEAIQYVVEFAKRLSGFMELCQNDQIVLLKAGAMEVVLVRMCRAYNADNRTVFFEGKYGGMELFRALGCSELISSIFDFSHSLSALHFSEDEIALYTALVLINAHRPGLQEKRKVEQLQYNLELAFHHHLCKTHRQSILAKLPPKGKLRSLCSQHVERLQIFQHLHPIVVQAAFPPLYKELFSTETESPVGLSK
recombinant RORγ Ligand Binding Domain (LBD) protein, sequence (P51449 269-508): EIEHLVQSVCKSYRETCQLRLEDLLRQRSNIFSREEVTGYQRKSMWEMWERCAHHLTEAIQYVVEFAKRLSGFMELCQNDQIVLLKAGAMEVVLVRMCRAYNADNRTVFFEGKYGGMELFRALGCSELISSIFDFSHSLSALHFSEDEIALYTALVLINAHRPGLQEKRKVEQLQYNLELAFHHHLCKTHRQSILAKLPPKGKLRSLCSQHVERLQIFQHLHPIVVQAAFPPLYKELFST

For orientation: Ki means a measure of affinity in units of concentration, obtained from inhibition or displacement. The IC50 is the concentration that gives 50% inhibition. A high value points to lower potency. Take `CCS(=O)(=O)c1ccc(CNC(=O)c2ccc3c(c2)nc(C(C)(C)OC)n3Cc2cccc3c2OC(F)(F)O3)cc1` [I-54, 1-((2,2-difluorobenzo[d][1,3]dioxol-4-yl)methyl)-N-(4-(ethylsulfonyl)benzyl)-2-(2-methoxypropan-2-yl)-1H-benzo[d]imidazole-5-carboxamide]: the inhibition constant (Ki) in assay [1] is less than 100 nM. The IC50 in assay [2] is less than 100 nM.
Take `CCS(=O)(=O)c1ccc(CNC(=O)c2ccc3c(c2)nc(OC)n3Cc2cccc3c2OC(F)(F)O3)cc1` [I-55, 1-((2,2-difluorobenzo[d][1,3]dioxol-4-yl)methyl)-N-(4-(ethylsulfonyl)benzyl)-2-methoxy-1H-benzo[d]imidazole-5-carboxamide]: the Ki in assay [1] is less than 100 nM. In assay [2], the IC50 was in the range of 100 to 1000 nM.
Regarding `CCS(=O)(=O)c1ccc(CNC(=O)c2ccc3c(c2)nc([C@@H]2C[C@H]2C#N)n3Cc2cccc3c2OC(F)(F)O3)cc1` [I-57, 2-((1R,2R)-2-cyanocyclopropyl)-1-((2,2-difluorobenzo[d][1,3]dioxol-4-yl)methyl)-N-(4-(ethylsulfonyl)benzyl)-1H-benzo[d]imidazole-5-carboxamide], the Ki in assay [1] was less than 100 nM. The same molecule yielded an IC50 in assay [2] of less than 100 nM.
On to `CCS(=O)(=O)c1ccc(CNC(=O)c2ccc3c(c2)nc([C@@H]2C[C@H]2C(=O)OC)n3Cc2cccc3c2OC(F)(F)O3)cc1` [I-58, methyl(1R,2R)-2-(1-((2,2-difluorobenzo[d][1,3]dioxol-4-yl)methyl)-5-((4-(ethylsulfonyl)benzyl)carbamoyl)-1H-benzo[d]imidazol-2-yl)cyclopropane-1-carboxylate], for which, in assay [1], the Ki was less than 100 nM. Further, the half-maximal inhibitory concentration (IC50) in assay [2] lay within 100 to 1000 nM.
Turning to `CCS(=O)(=O)c1ccc([C@H](COC)NC(=O)c2ccc3c(c2)nc(C(F)(F)F)n3Cc2cccc3c2OC(F)(F)O3)cc1` [I-59, (R)-1-((2,2-difluorobenzo[d][1,3]dioxol-4-yl)methyl)-N-(1-(4-(ethylsulfonyl)phenyl)-2-methoxyethyl)-2-(trifluoromethyl)-1H-benzo[d]imidazole-5-carboxamide], the Ki in assay [1] was less than 100 nM. Moreover, the IC50 in assay [2] was less than 100 nM.
Take `CCS(=O)(=O)c1ccc([C@H](COC)NC(=O)c2ccc3c(c2)nc(C2CC2)n3Cc2cccc3c2OC(F)(F)O3)cc1` [I-60, (R)-2-cyclopropyl-1-((2,2-difluorobenzo[d][1,3]dioxol-4-yl)methyl)-N-(1-(4-(ethylsulfonyl)phenyl)-2-methoxyethyl)-1H-benzo[d]imidazole-5-carboxamide]: the Ki in assay [1] is less than 100 nM. In addition, the IC50 in assay [2] was less than 100 nM.
For the molecule `CCS(=O)(=O)c1ccc([C@H](COC)NC(=O)c2ccc3c(c2)nc(C2(F)CC2)n3Cc2cccc3c2OC(F)(F)O3)cc1` [I-61, (R)-1-((2,2-difluorobenzo[d][1,3]dioxol-4-yl)methyl)-N-(1-(4-(ethylsulfonyl)phenyl)-2-methoxyethyl)-2-(1-fluorocyclopropyl)-1H-benzo[d]imidazole-5-carboxamide], the Ki in assay [1] is less than 100 nM. Besides, the IC50 in assay [2] was less than 100 nM.
With `CCS(=O)(=O)c1ccc([C@H](COC)NC(=O)c2ccc3c(c2)nc(C(F)(F)F)n3Cc2cccc3c2OC(F)(F)O3)nc1` [I-62, (R)-1-((2,2-difluorobenzo[d][1,3]dioxol-4-yl)methyl)-N-(1-(5-(ethylsulfonyl)pyridin-2-yl)-2-methoxyethyl)-2-(trifluoromethyl)-1H-benzo[d]imidazole-5-carboxamide], the Ki in assay [1] is less than 100 nM. The molecule further returned an IC50 in assay [2] of less than 100 nM.
Take `CCS(=O)(=O)c1ccc(CNC(=O)c2ccc3c(c2)nc(C(F)(F)F)n3Cc2cccc3c2OC(F)(F)O3)nc1` [I-63, 1-((2,2-difluorobenzo[d][1,3]dioxol-4-yl)methyl)-N-((5-(ethylsulfonyl)pyridin-2-yl)methyl)-2-(trifluoromethyl)-1H-benzo[d]imidazole-5-carboxamide]: the Ki in assay [1] is less than 100 nM. For the same molecule, the IC50 in assay [2] is less than 100 nM.
